Measurements reported in ChEMBL document CHEMBL1132529 (Bioorg Med Chem Lett, 1999).
pKi: −log10 of the molar value.

Molecular target: T1, Neutrophil elastase (Homo sapiens, UniProt P08246)
T1 sequence (P08246 whole entry): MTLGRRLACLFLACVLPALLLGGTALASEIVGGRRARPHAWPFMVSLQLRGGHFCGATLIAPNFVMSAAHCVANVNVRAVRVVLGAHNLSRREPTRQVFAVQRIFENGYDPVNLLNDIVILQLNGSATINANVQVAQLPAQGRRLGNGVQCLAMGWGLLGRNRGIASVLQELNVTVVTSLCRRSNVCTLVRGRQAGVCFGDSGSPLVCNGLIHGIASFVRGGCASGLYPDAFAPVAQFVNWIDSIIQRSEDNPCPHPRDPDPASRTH
Assay: Inhibitory constant for human neutrophil elastase

- pKi: 3.57
Structure (SMILES): CC[C@@H](C)[C@H](NCc1ccccc1)C(=O)N[C@@H](CCCCNC(=O)C12CC3CC(CC(C3)C1)C2)C(=O)N[C@@H](CS)C(=O)N[C@H](C(=O)O)C(C)C
